Results on 6 molecules are retold here after article PMC9420858, “Synthesis, bioactivity, and molecular docking of novel arylpiperazine derivatives as potential AR antagonists” (Frontiers in Chemistry, 2022).

Like-named read-outs stand apart in the source and are kept apart here.

Data set [1] deals with PC-3 cells. The data set is described as follows: Antiproliferative activity, CCK-8 assay, PC-3 cells. Format: cell-based. To be noted: PC-3 human prostate cancer cell line, 24 h, mean ± SD of three experiments. How it is done: (§1) The antiproliferative activity of compounds 5–26 was assessed using the CCK-8 assay ([Chen et al., 2016]; [Chen et al., 2017]; [Chen et al., 2018]; [Han et al., 2020]; [Guo et al., 2021]; [Hu et al., 2022]; [Zhou et al., 2022]). The 96-well plates (1×10^5 cells/mL) were seeded with cells in a medium, the plates were cultured at 37 °C for 24 h, then different concentrations of tested drugs were added, and the plates were cultured for 24 h. After 24 h, 10 μL of CCK-8 solution (5 mg/ml) was added to the wells, and the cells were cultured for 1 h at 37°C. Cell growth inhibition was performed by measuring the absorbance at 450 nm using a microplate reader, and the percentage of cell growth inhibition was then calculated for each tested drug.
(§2) Antiproliferative activity of the novel arylpiperazine derivatives was firstly evaluated against LNCaP cells using the CCK-8 assay. […] Naftopidil and finasteride ([Banday et al., 2014]) were used as control compounds. RWPE-1 cells were used to compare their toxicity. To clarify whether the antiproliferative activity was related to any interference with AR function, the AR antagonist effect was evaluated using the luciferase reporter gene assay. […] The AR luciferase assays were conducted under the co-treatment of 1 nM AR agonist R1881, and the antagonistic activity was measured by inhibiting the R1881-induced luciferase expression.
A general note: Formazan colour is commonly taken as a measure of viable cells.

In data set [2] the test system is LNCaP cells. As to the kind of experiment: Antiproliferative activity, CCK-8 assay, LNCaP cells. The format is cell-based. To be noted: 24 h, LNCaP human prostate cancer cell line, mean ± SD of three experiments. How it is done:
as §1, §2

The next data set concerns RWPE-1 cells. As to the kind of experiment: Cytotoxicity, CCK-8 assay, RWPE-1 normal prostate epithelial cells. The format is cell-based. To be noted: RWPE-1 normal non-cancer human prostate epithelial cell line, 24 h, mean ± SD of three experiments. How it is done:
as §1, §2

A further data set deals with T1, AR-LBD (GST) (Rattus norvegicus, UniProt P15207).
T1 sequence (P15207 651-882 limits assumed): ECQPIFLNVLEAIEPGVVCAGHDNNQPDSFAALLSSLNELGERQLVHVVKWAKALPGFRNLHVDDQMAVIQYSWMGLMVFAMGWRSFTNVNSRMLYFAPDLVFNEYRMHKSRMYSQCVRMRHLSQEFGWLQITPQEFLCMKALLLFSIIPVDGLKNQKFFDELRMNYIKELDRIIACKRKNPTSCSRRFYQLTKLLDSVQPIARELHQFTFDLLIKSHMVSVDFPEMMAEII
As to the kind of experiment: AR binding, fluorescence polarization (PolarScreen AR Competitor Assay). A general note: Polarisation of emitted light reports the rotation of a fluorescent probe.

Data set [3] concerns LNCaP cells. Particulars: printed without SD, ref Banday et al., 2014, read-out: LNCaP IC50 (control compound finasteride); cited from earlier work.
Data set [4] has as its system PC-3 cells. Particulars: printed without SD, ref Banday et al., 2014, read-out: PC-3 IC50 (control compound finasteride); cited from earlier work.
[5] abbreviates: AR binding affinity IC50, fluorescence polarization.

Experimental for AR-LBD (GST): Briefly, titrations are performed between the tested compounds and the preformed Fluormone™AL Green and the AR-LBD (GST) complex. The tested mixture was allowed to equilibrate at room temperature in 384-well plates for 4 h. […] Data of the ligand binding assays were analyzed using Prism software (GraphPad Software, Inc.).

For the molecule `COc1ccc(N2CCN(CCc3ccc(COc4ccc5c(c4)CCC5)cc3)CC2)cc1` [Compound 15, 1-(4-((2,3-dihydro-1H-inden-5-yloxy)methyl)phenethyl)-4-(4-methoxyphenyl)piperazine], the melting point (commonly the temperature, or range, at which the solid turns liquid) lay within 78.1 to 79.3 °C. Moreover, half-maximal inhibition with PC-3 cells [1] (IC50) required 8.94 ± 0.21 µM. Besides, in the data set with LNCaP cells [2] (Homo sapiens, LNCaP), the 50% inhibitory concentration (IC50) (usually the concentration that gives 50% inhibition) was below 10 µM. The molecule also had an IC50 in the data set with LNCaP cells [2] of 9.72 ± 0.13 µM. The molecule further gave an IC50 in the data set with RWPE-1 cells of 21.7 ± 0.23 µM. Besides, the IC50 on AR-LBD (GST) turned out to be 2.85 ± 0.65 µM.

Molecule `Clc1ccccc1N1CCN(CCc2ccc(COc3ccc4c(c3)CCC4)cc2)CC1` [Compound 19, 1-(4-((2,3-dihydro-1H-inden-5-yloxy)methyl)phenethyl)-4-(2-chlorophenyl)piperazine] gave a melting point of 91.4 to 92.1 °C. Besides, the IC50 with PC-3 cells [1] was above 50 µM. The molecule further returned an IC50 in the data set with LNCaP cells [2] (Homo sapiens, LNCaP) below 10 µM. The same molecule returned an IC50 in the data set with LNCaP cells [2] of 6.87 ± 0.06 µM. In the data set on RWPE-1 cells, this molecule showed an IC50 of 32.67 ± 0.14 µM. In addition, the IC50 on AR-LBD (GST) came out at 2.06 ± 0.21 µM. Besides, on AR-LBD (GST) (setting [5]), the IC50 is below 3 µM.

For the molecule `Clc1cccc(N2CCN(CCc3ccc(COc4ccc5c(c4)CCC5)cc3)CC2)c1Cl` [Compound 22, 1-(4-((2,3-dihydro-1H-inden-5-yloxy)methyl)phenethyl)-4-(2,3-dichlorophenyl)piperazine], the melting point lay in the range of 77.2 to 78.4 °C. The molecule also returned an IC50 with PC-3 cells [1] of 23.48 ± 0.23 µM. Besides, the IC50 in the data set with LNCaP cells [2] (Homo sapiens, LNCaP) was below 10 µM. In the data set with LNCaP cells [2], this molecule came in with an IC50 of 6.32 ± 0.14 µM. The molecule further had a 50% inhibitory concentration (IC50) in the data set on RWPE-1 cells above 50 µM. The molecule further registered an IC50 at AR-LBD (GST) of 2.47 ± 0.11 µM. Also, the IC50 at AR-LBD (GST) (setting [5]) was below 3 µM.

Consider `CC(C)(C)NC(=O)[C@H]1CC[C@H]2[C@@H]3CC[C@H]4NC(=O)C=C[C@]4(C)[C@H]3CC[C@]12C` [Finasteride], for which the IC50 with LNCaP cells [3] is 13.5 µM; with PC-3 cells [4] it was 17.8 µM.

Take `COc1ccccc1N1CCN(CCc2ccc(COc3ccc4c(c3)CCC4)cc2)CC1` [Compound 12, 1-(4-((2,3-dihydro-1H-inden-5-yloxy)methyl)phenethyl)-4-(2-methoxyphenyl)piperazine]: the melting point was 77.3 to 78.5 °C. For the same molecule, the IC50 with PC-3 cells [1] was found to be 25.62 ± 0.17 µM. Moreover, in the data set on LNCaP cells [2] (Homo sapiens, LNCaP), the IC50 is below 10 µM. In the data set with LNCaP cells [2], 8.12 ± 0.11 µM corresponded to half-maximal inhibition (IC50). The molecule further registered an IC50 in the data set on RWPE-1 cells above 50 µM. Also, on AR-LBD (GST), the IC50 came out at 2.53 ± 0.15 µM. The molecule further had an IC50 at AR-LBD (GST) (setting [5]) below 3 µM.

Consider `Cc1ccccc1N1CCN(CCc2ccc(COc3ccc4c(c3)CCC4)cc2)CC1` [Compound 8, 1-(4-((2,3-dihydro-1H-inden-5-yloxy)methyl)phenethyl)-4-o-tolylpiperazine], for which the melting point is 62.3 to 63.1 °C. The same molecule registered an IC50 in the data set with PC-3 cells [1] above 50 µM. Further, the concentration for half-maximal inhibition (IC50) with LNCaP cells [2] (Homo sapiens, LNCaP) is below 10 µM. The same molecule displayed a concentration for half-maximal inhibition (IC50) in the data set on LNCaP cells [2] of 7.37 ± 0.15 µM. Besides, in the data set on RWPE-1 cells, the half-maximal inhibitory concentration (IC50) was above 50 µM. On AR-LBD (GST), this molecule showed an IC50 of 2.35 ± 0.09 µM. The IC50 on AR-LBD (GST) (setting [5]) is below 3 µM.
